The values that follow come from paper PMC3871601, “Potential Cooperations between Odorant-Binding Proteins of the Scarab Beetle Holotrichia oblita Faldermann (Coleoptera: Scarabaeidae)” (PLoS ONE, 2013).

Experiment [1] deals with T1, HoblOBP3 (Holotrichia oblita, UniProt G9BWQ7). Kind of experiment: biochemical. In kind it is binding. As to the method: (§1) N-phenyl-1-naphthylamine (1-NPN) was selected as a probe to measure the affinity of the 1-NPN fluorescent ligand to proteins. A 1-cm light path quartz cuvette was used, and the fluorescence spectra were recorded on a Lengguang 970 CRT spectrofluorimeter (Shanghai Jingmi, China) at room temperature in a right angle configuration. The parameter selection was such that the slit widths for both excitation and emission were 10 nm. 1-NPN was excited at 337 nm and the emission spectra were recorded between 350 and 550 nm. Spectra were recorded using high-speed scanning.
T1 sequence (G9BWQ7 entry or part of it): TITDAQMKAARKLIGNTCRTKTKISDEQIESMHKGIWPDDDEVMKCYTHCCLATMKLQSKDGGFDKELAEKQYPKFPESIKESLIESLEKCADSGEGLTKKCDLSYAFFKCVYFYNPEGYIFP
(§2) The 2 µM protein solution was dissolved in 50 mM Tris-HCl buffer with pH 7.4, and the ligands were dissolved in chromatographically pure methanol as a 1 mM stock solution. 1-NPN was dissolved in chromatographically pure methanol as a 1 mM stock solution.
(§3) To determine the dissociation constants, the intensity values corresponding to the maximum fluorescence emission were plotted against free ligand concentrations. Assuming that the protein was 100% active and that the stoichiometric ratio between the protein and ligand was 1:1 at saturation, the bound ligand was determined from the fluorescence intensity values. The curves were then linearized using Scatchard plots. The K1-NPN values were estimated using GraphPad Prism 5 Software by nonlinear regression for a unique binding site. The dissociation constants of the competitors (Ki) were calculated from the corresponding IC50 values using the following equation: Ki = [IC50]/1+[1-NPN]/K1-NPN. […] [1-NPN] represented the free concentration of 1-NPN, and K1-NPN represented the dissociation constant of the complex protein/1-NPN [76].

Experiment [2] concerns the target T2, HoblOBP4 (Holotrichia oblita, UniProt G9BWQ8). Description: biochemical. To be noted: for Affinity (in words): HoblOBP4 alone. In kind it is binding. As for the experimental part:
as §1, §2, §3

The subject of experiment [3] is HoblOBP1 and HoblOBP2 mixtures. Kind of experiment: Competitive binding assay with binary protein mixture OBP1-OBP2. The conditions noted are these: HoblOBP1 and HoblOBP2 equimolar mixture and 1-NPN 2 µM, ligand 4–40 µM; compared to either protein alone. On the set-up: species or system Holotrichia oblita. As to the method: (§4) It is well known that the concentration of OBPs (also likely CSPs) in the sensillum lymph of the insect is extremely high (reportedly 10 mM). A hypothesis has been proposed that OBPs (or CSPs) homodimers or heterodimers might form. Thus, all binary potential intersections with four HoblOBPs and two HoblCSPs were tested in competitive binding assays to determine the existence of dimers. These experiments assumed that the protein was 100% active, a stoichiometric ratio between the protein and ligand was 1:1 at saturation and the two proteins were present in equimolar amounts. The binding curves and Scatchard plots of OBP3 and OBP4 mixture or CSP1 and CSP2 mixture were consistent with the functions of the individual proteins. However, the binding curve of the OBP2 and OBP4 mixture or OBP1 and OBP2 mixture presented a different tendency from those obtained with the individual proteins. […] Thus, we speculated that the decreased binding velocity was the main cause underlying this phenomenon. […] Such binding of the OBP2 and OBP4 mixture or OBP1 and OBP2 mixture in H. oblita was consistent with the OBP1 and OBP4 mixture in A. gambiae. In particular, some experiments also indicated interactions between OBP1 and OBP4 in A. gambiae. Thus, the hypothesis on a potential interaction between OBP2 and OBP4 (or OBP1 and OBP2) in H. oblita was proposed.
(§5) Figure 8 Competitive binding curves of representative ligands to binary protein mixtures OBP2-OBP4 and OBP1-OBP2 in H. oblita. The chemical structures of the ligands are shown on the right. A mixture of the proteins (equimolar amounts) and 1-NPN with both concentration of 2 µM in Tris-buffer was titrated with 1 mM solution of each competing ligand to final concentrations of 4–40 µM.
(§6) The 2 µM protein solution was dissolved in 50 mM Tris-HCl buffer with pH 7.4, and the ligands were dissolved in chromatographically pure methanol as a 1 mM stock solution. 1-NPN was dissolved in chromatographically pure methanol as a 1 mM stock solution. The protein solution was titrated to measure the protein’s affinity for the probe by adding aliquots of 1-NPN stock solution to final concentrations of 2 to 20µM.

The subject of another experiment is HoblOBP2. On the set-up: method as in PMID 21852709. The conditions noted are these: HoblOBP2 alone; ref [13]; cited from earlier work.
In another experiment the test system is HoblOBP1. On the set-up: method as in PMID 21852709. To be noted: HoblOBP1 alone; ref [13]; cited from earlier work.
For experiment [4], the target named is T1, HoblOBP3. Description: Binding curve of 1-NPN and Scatchard plot, HoblOBP3. To be noted: HoblOBP3 2 µM in Tris-buffer, 1-NPN 2–20 µM; read-out: Dissociation constant of 1-NPN. As to the method:
as §1, with “scanning. Several types of compounds purchased from Sigma-Aldrich (Chemie Gmbh, Steinheim, Germany) were identified in the binding assays, and their purities were > 97% (Table 1). […]” for “scanning.”
(§7) To determine the dissociation constants, the intensity values corresponding to the maximum fluorescence emission were plotted against free ligand concentrations. Assuming that the protein was 100% active and that the stoichiometric ratio between the protein and ligand was 1:1 at saturation, the bound ligand was determined from the fluorescence intensity values. […] The dissociation constants of the competitors (Ki) were calculated from the corresponding IC50 values using the following equation: Ki = [IC50]/1+[1-NPN]/K1-NPN. […]

Experiment [5] addresses T2, HoblOBP4. Description: Binding curve of 1-NPN and Scatchard plot, HoblOBP4. To be noted: HoblOBP4 2 µM in Tris-buffer, 1-NPN 2–20 µM; read-out: Dissociation constant of 1-NPN. As to the method: as §1, with “scanning. Several types of compounds purchased from Sigma-Aldrich (Chemie Gmbh, Steinheim, Germany) were identified in the binding assays, and their purities were > 97% (Table 1). […]” for “scanning.”
as §7

In experiment [6] the test system is HoblOBP2 and HoblOBP4 mixtures. Kind of experiment: Competitive binding assay with binary protein mixture OBP2-OBP4. On the set-up: species or system Holotrichia oblita. To be noted: HoblOBP2 and HoblOBP4 equimolar mixture and 1-NPN 2 µM, ligand 4–40 µM. As to the method:
as §4, §5, §6

[7] abbreviates: HoblOBP3, dash = IC50 exceeded 50 µM, read-out: IC50 (dash).
[8] abbreviates: HoblOBP3, dash = ligand whose IC50 exceeded 50 µM, Ki not given, read-out: Ki (dash).
[9] abbreviates: pH 7.4, HoblOBP3, at the ligand concentration 24 µM, protein and 1-NPN both 2 µM, read-out: Int (fluorescence intensity as percent of the initial fluorescence).
The mark [10] stands for this setting: HoblOBP4, dash = IC50 exceeded 50 µM, read-out: IC50 (dash).
[11] abbreviates: HoblOBP4, dash = ligand whose IC50 exceeded 50 µM, Ki not given, read-out: Ki (dash).
[12] abbreviates: pH 7.4, HoblOBP4, at the ligand concentration 24 µM, protein and 1-NPN both 2 µM, read-out: Int (fluorescence intensity as percent of the initial fluorescence).
Where [13] appears, read: pH 7.4, read-out: Int (fluorescence intensity as percent of the initial fluorescence).

Where two headings read alike, the source gives them in different places.

T2 sequence (G9BWQ8 entry or part of it): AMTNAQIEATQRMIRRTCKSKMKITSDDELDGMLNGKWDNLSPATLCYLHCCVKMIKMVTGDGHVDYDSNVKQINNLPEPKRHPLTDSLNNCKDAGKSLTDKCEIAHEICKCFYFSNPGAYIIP

As for `CCCCCCC=O` [1-Heptanal], the IC50 on HoblOBP3 [1] (setting [7]) and at HoblOBP4 [2] (setting [10]) was greater than 50 µM throughout. Besides, the inhibition constant Ki on HoblOBP3 [1] (setting [8]) and at HoblOBP4 [2] (setting [11]) was greater than 50 µM throughout. Further, the activity at 24 µM was determined as 65% on HoblOBP3 [1] (setting [9]) and 64% at HoblOBP4 [2] (setting [12]). Besides, the “Affinity (in words)” value was “enhanced affinity” in experiment [3], “low-afﬁnity or non-afﬁnity” with HoblOBP2 and “low-afﬁnity or non-afﬁnity” with HoblOBP1.
Take `c1ccc(Nc2cccc3ccccc23)cc1` [1-NPN, N-phenyl-1-naphthylamine]: the Kd at HoblOBP3 [4] was 1.88 µM; on HoblOBP4 [5], 2.78 µM.
Consider `O=C/C=C/c1ccccc1` [Cinnamaldehyde], for which the IC50 against HoblOBP3 [1] was 46 µM; at HoblOBP4 [2], 9 µM. Further, the Ki at HoblOBP3 [1] came to 30 µM; at HoblOBP4 [2], 6.6 µM. The activity at 24 µM at HoblOBP3 [1] (setting [13]) was 64%; at HoblOBP4 [2] (setting [13]), 36%. The “Affinity (in words)” value on HoblOBP4 [2] is on record as “good afﬁnity”; in experiment [6], “good affinity”; with HoblOBP2 it was “low-afﬁnity or non-afﬁnity”.
`C=CCc1ccc(O)c(OC)c1` [Eugenol]: the IC50 against HoblOBP3 [1] and against HoblOBP4 [2] was greater than 50 µM in each case. The Ki on HoblOBP3 [1] and at HoblOBP4 [2] was greater than 50 µM in each case. The figures for the activity at 24 µM on HoblOBP3 [1] (setting [13]) and on HoblOBP4 [2] (setting [13]) were 97% and 57%, respectively. For the same compound, the entries for the “Affinity (in words)” value (at HoblOBP4 [2]; in experiment [6]; in the experiment with HoblOBP2) were “no afﬁnity”, “good affinity” and “low-afﬁnity or non-afﬁnity”, respectively.
With `C=C[C@](C)(O)CCC=C(C)C` [R-(-)-Linalool], the 50% inhibitory concentration (IC50) was greater than 50 µM on HoblOBP3 [1] and 20 µM against HoblOBP4 [2]. For the same compound, the inhibitory constant (Ki) on HoblOBP3 [1] is greater than 50 µM; on HoblOBP4 [2], 14.7 µM. The activity at 24 µM at HoblOBP3 [1] (setting [13]) is 73%; at HoblOBP4 [2] (setting [13]) it was 46%. Besides, the “Affinity (in words)” value in experiment [3] was “enhanced affinity”; in the experiment on HoblOBP2 it was “low-afﬁnity or non-afﬁnity”; with HoblOBP1 it was “low-afﬁnity or non-afﬁnity”.
Take `CC1=C(/C=C/C(C)=C/C=C/C(C)=C/CO)C(C)(C)CCC1` [Retinol]: the IC50 at HoblOBP3 [1] (setting [7]) and on HoblOBP4 [2] (setting [10]) was greater than 50 µM each time. Also, the Ki at HoblOBP3 [1] (setting [8]) and on HoblOBP4 [2] (setting [11]) was greater than 50 µM throughout. For the same compound, the entries for the “Affinity (in words)” value (at HoblOBP4 [2]; in experiment [6]; in the experiment with HoblOBP2) were “no afﬁnity”, “good affinity” and “low-afﬁnity or non-afﬁnity”, respectively.
For the compound `CC/C=C\CCO` [cis-3-Hexen-1-ol], the half-inhibitory concentration (IC50) against HoblOBP3 [1] is greater than 50 µM; at HoblOBP4 [2], 17 µM. Moreover, the inhibition constant (Ki) on HoblOBP3 [1] was greater than 50 µM; at HoblOBP4 [2], 12.5 µM. For the same compound, the figures for the activity at 24 µM on HoblOBP3 [1] (setting [13]) and on HoblOBP4 [2] (setting [13]) were 81% and 46%, respectively.
For `CCC/C=C/C=O` [trans-2-Hexenal], the results for the IC50 at HoblOBP3 [1] and at HoblOBP4 [2] were greater than 50 µM and 11 µM, respectively. Further, the inhibitory constant (Ki) on HoblOBP3 [1] is greater than 50 µM; at HoblOBP4 [2] it was 8.1 µM. Besides, the activity at 24 µM came out at 74% on HoblOBP3 [1] (setting [13]) and 39% on HoblOBP4 [2] (setting [13]).
As to `CCC/C=C/CO` [trans-2-Hexenol], the values for the IC50 against HoblOBP3 [1] and against HoblOBP4 [2] were greater than 50 µM and 24 µM, respectively. Further, the figures for the inhibition constant (Ki) on HoblOBP3 [1] and on HoblOBP4 [2] were greater than 50 µM and 17.7 µM, respectively. In addition, the activity at 24 µM on HoblOBP3 [1] (setting [9]) stood at 82%; on HoblOBP4 [2] (setting [12]), 51%. Also, the results for the “Affinity (in words)” value (in experiment [3]; in the experiment on HoblOBP2; with HoblOBP1) were “enhanced affinity”, “low-afﬁnity or non-afﬁnity” and “low-afﬁnity or non-afﬁnity”, respectively.
In the case of `CC(=O)/C=C/C1C(C)=CCCC1(C)C` (stereo not drawn) [α-Ionone], the IC50 against HoblOBP3 [1] stood at 16 µM; at HoblOBP4 [2], 19 µM. Besides, the values for the inhibitory constant (Ki) on HoblOBP3 [1] and at HoblOBP4 [2] were 10.4 µM and 14 µM, respectively. The activity at 24 µM at HoblOBP3 [1] (setting [13]) is 41%; on HoblOBP4 [2] (setting [13]), 45%.
In the case of `CC1=CC[C@@H](C(C)(C)O)CC1` [α-Terpineol], the IC50 against HoblOBP3 [1] is greater than 50 µM; against HoblOBP4 [2], 35.5 µM. Further, the Ki on HoblOBP3 [1] was greater than 50 µM; on HoblOBP4 [2], 26.1 µM. Moreover, the figures for the activity at 24 µM on HoblOBP3 [1] (setting [13]) and on HoblOBP4 [2] (setting [13]) were 71% and 53%, respectively. Further, the “Affinity (in words)” value in experiment [3] is reported as “enhanced affinity”; in the experiment with HoblOBP2, “low-afﬁnity or non-afﬁnity”; with HoblOBP1, “low-afﬁnity or non-afﬁnity”.
At HoblOBP3 [1], `C=C1CC/C=C(\C)CC[C@@H]2[C@@H]1CC2(C)C` [β-Caryophyllene] returned an IC50 greater than 50 µM and a Ki greater than 50 µM. Moreover, at HoblOBP4 [2], the half-maximal inhibitory concentration (IC50) is greater than 50 µM and the Ki is greater than 50 µM.
For `CC(=O)/C=C/C1=C(C)CCCC1(C)C` [β-Ionone], the results for the IC50 on HoblOBP3 [1] and against HoblOBP4 [2] were 8 µM and 15 µM, respectively. Besides, the Ki at HoblOBP3 [1] came out at 5.2 µM; on HoblOBP4 [2], 11 µM. The figures for the activity at 24 µM on HoblOBP3 [1] (setting [13]) and at HoblOBP4 [2] (setting [13]) were 36% and 42%, respectively. Moreover, the “Affinity (in words)” value at HoblOBP4 [2] is given as “good afﬁnity”; in experiment [6], “enhanced affinity”; in the experiment with HoblOBP2, “good afﬁnity”.
